From patent publication US20110189204A1, “Treatment of Disease with Proteasone Inhibitors” (priority 2009, published 2011)

Legend:
[1] = Plasma pharmacokinetics, bi-weekly/weekly subcutaneous dosing (TOX7345)
Procedure: (§3) For bi-weekly dosing treatment (TOX 7345), a group of 3 male and 3 female Cynomolgus monkeys were dosed for 4 cycles.
(§4) The test substance and vehicle were freshly prepared on the day of use.
(§5) For each study, the values of the time to maximum plasma concentration (Tmax), the maximum plasma concentration (Cmax) were determined by visual inspection of the data. The area-under-the plasma-concentration-time curve (AUC) was estimated by the linear trapezoidal rule. Plasma samples were analyzed using a validated LC/MS/MS method with a lower quantification limit of about 0.5 ng/ml.

in vivo [2] = assay: in vivo
Procedure: (§1) For each study group, the following toxicological screening was performed: mortality, body weight, food consumption, clinical observations, ophthalmology, electrocardiography, hematology, serum biochemistry, urinalysis, injection site evaluations (erythema and edema), neurological examinations, histology, and peripheral neuropathy.

[3] = Plasma pharmacokinetics, daily (5/7 days) subcutaneous dosing (TOX8394)
in vivo [4] = settings: both, cynomolgus monkey, plasma
in vivo [5] = settings: both, cynomolgus monkey, plasma; remark: listed apart in the source
Procedure: as §3, §4, §5

[6] = Toxicological screening, bi-weekly/weekly subcutaneous dosing (TOX7345)
Procedure: as §1

[7] = test system: 20S proteasome (chymotryptic activity) in whole blood; assay: 20S proteasome inhibition in whole blood, daily (5/7 days) dosing (TOX8394); type: in vivo, Cynomolgus monkeys
Procedure: (§2) For each study, the 20S proteasome activity in whole blood was determined, as described in Lightcap, Clin. Chem., 46:673 (2000). The chymotryptic activity was assayed by measuring the rate at which the proteasome hydrolyzed an amide bond in a small fluorescence tagged polypeptide substrate. The specific activity (Spa) was normalized to the amount of protein present in the lysate.

[8] = test system: 20S proteasome (chymotryptic activity) in whole blood; assay: 20S proteasome inhibition in whole blood, bi-weekly/weekly dosing (TOX7345); type: in vivo, Cynomolgus monkeys
Procedure: as §2

[9] = day 1, 0.075 mg/kg sc bi-weekly
[10] = day 32, 0.075 mg/kg sc bi-weekly
[11] = day 74, 0.075 mg/kg sc bi-weekly
[12] = both, cynomolgus monkey, in vivo
[13] = day 3, 0.0166 mg/kg sc daily (5/7 days)
[14] = day 3, 0.0333 mg/kg sc daily (5/7 days)
[15] = day 3, 0.05 mg/kg sc daily (5/7 days)
[16] = day 54, 0.0166 mg/kg sc daily (5/7 days)
[17] = day 54, 0.0333 mg/kg sc daily (5/7 days)
[18] = day 54, 0.05 mg/kg sc daily (5/7 days)
[19] = cynomolgus monkey, in vivo, 0.1 mg/kg

Structure (SMILES): CC(C)C[C@H](NC(=O)[C@H](Cc1ccccc1)NC(=O)c1cnccn1)B(O)O [bortezomib]
- AUC0-72 h [1, 9]: 36.7 ng·h/mL
- AUC0-72 h ([1]; day 1, 0.1 mg/kg sc bi-weekly): 77.5 ng·h/mL
- AUC0-72 h [1, 10]: 110 ng·h/mL
- Cmax [1, 10]: 58.8 ng/mL
- Tmax [1, 10]: 15 min
- AUC0-72 h ([1]; day 32, 0.1 mg/kg sc bi-weekly): 227 ng·h/mL
- Tmax ([1]; day 32, 0.1 mg/kg sc bi-weekly): 7.14 min
- AUC0-72 h ([1]; day 50, 0.166 mg/kg sc weekly): 205 ng·h/mL
- Cmax ([1]; day 50, 0.166 mg/kg sc weekly): 168 ng/mL
- AUC0-72 h [1, 11]: 122 ng·h/mL
- Cmax [1, 11]: 70.1 ng/mL
- Tmax [1, 11]: 8.34 min
- AUC0-72 h ([1]; day 74, 0.1 mg/kg sc bi-weekly): 211 ng·h/mL
- Cmax ([1]; day 74, 0.1 mg/kg sc bi-weekly): 113 ng/mL
- Tmax ([1]; day 74, 0.1 mg/kg sc bi-weekly): 9.66 min
- Kidney weights (in vivo [2]; 0.05 mg/kg/dose, all monkeys): greater than kidney weights of control monkeys
- Injection site histopathological finding (in vivo [2]; 0.05 mg/kg/dose, male and female): fibroplasia
- Peripheral neuropathy: peripheral (sciatic, tibial and peroneal nerves) degeneration (in vivo [2]; 0.0333-0.05 mg/kg): peroneal nerves): minimal
- Peripheral neuropathy: spinal cord dorsal funiculi (cervical & lumbar) (in vivo [2]; 0.0333-0.05 mg/kg): & lumbar) minimal degeneration
- Clinical observations: faeces (in vivo [2]; 0.0333 or 0.05 mg/kg): Abnormal faeces (soft, liquid, 0.0333
- MTD at 8 weeks (in vivo [2]; [12]): ~0.05 mg/kg
- Body weight (in vivo [2]; cynomolgus monkey, in vivo): No body weight loss at any other
- ECG, ophthalmology, rectal temperature or blood pressure (in vivo [2]; cynomolgus monkey, in vivo): No bortezomib-related changes
- Electrocardiography (in vivo [2]; cynomolgus monkey, in vivo): No abnormalities found at any dose
- Fibrinogen concentrations (in vivo [2]; cynomolgus monkey, in vivo): fibrinogen concentrations increased
- Gross abnormalities at necropsy (in vivo [2]; cynomolgus monkey, in vivo): no gross abnormalities
- Haemathology: mean platelet volume (in vivo [2]; cynomolgus monkey, in vivo): mean platelet volume increased
- Haemathology: platelet numbers (in vivo [2]; cynomolgus monkey, in vivo): Platelet numbers decreased
- Histology: BONE MARROW (in vivo [2]; cynomolgus monkey, in vivo): BONE MARROW: no findings
- Histology: LYMPH NODES (in vivo [2]; cynomolgus monkey, in vivo): LYMPH NODES: no findings
- Histology: SPLEEN (in vivo [2]; cynomolgus monkey, in vivo): SPLEEN: no findings
- Ophthalmology (in vivo [2]; cynomolgus monkey, in vivo): No treatment related changes
- Urinalysis (in vivo [2]; cynomolgus monkey, in vivo): No treatment related findings
- Urinalysis parameters creatinine, inorganic phosphorus, ketones, protein and sodium (in vivo [2]; cynomolgus monkey, in vivo): Increases
- Tolerability (in vivo [2]; cynomolgus monkey, in vivo, sc): well tolerated
- Stool (in vivo [2]; multiple days, one male each at 0.0166 and 0.0333, one female at 0.05 mg/kg/dose): Soft stool
- Body weight lost (in vivo [2]; nine male and female monkeys in the 0.0333 and 0.05 mg/kg/dose groups): 3-12%
- No Observed Adverse Effect Level (NOAEL) (in vivo [2]; repeated five times weekly sc administration for 8 weeks): cannot be identified
- Tmax [3, 13]: 0.138 (0.05) h
- Tmax [3, 14]: 0.165 (0.07) h
- Tmax [3, 15]: 0.203 (0.07) h
- Tmax [3, 16]: 0.161 (0.07) h
- Tmax [3, 17]: 0.184 (0.07) h
- Tmax [3, 18]: 0.185 (0.07) h
- Tmax (in vivo [4]; Cynomolgus, subcutaneous): ≤ 15 min
- Cmax (in vivo [4]; sc, 0.0166 mg/kg): 10.7 ng/mL
- Tmax (in vivo [4]; sc, 0.0166 mg/kg): 8.88 min
- Cmax (in vivo [4]; sc, 0.0333 mg/kg): 23.7 ng/mL
- Tmax (in vivo [4]; sc, 0.0333 mg/kg): 6.96 min
- Cmax (in vivo [4]; sc, 0.05 mg/kg): 34.2 ng/mL
- Tmax (in vivo [4]; sc, 0.05 mg/kg): 12 min
- AUC(0-t) (in vivo [5]; Cynomolgus, sc, 0.166 mg/kg): 229 ng·h/mL
- Cmax (in vivo [5]; Cynomolgus, sc, 0.166 mg/kg): 158 ng/mL
- Tmax (in vivo [5]; Cynomolgus, sc, 0.166 mg/kg): 13.8 min
- Tmax (in vivo [5]; Cynomolgus, subcutaneous): ≤ 15 min
- Cmax (in vivo [5]; sc, 0.075 mg/kg): 61.1 ng/mL
- Cmax (in vivo [5]; sc, 0.1 mg/kg): 86.2 ng/mL
- Tmax (in vivo [5]; sc, 0.1 mg/kg): 7.02 min
- AUC(0-t) (in vivo [5]; sc, 0.166 mg/kg): 160 ng·h/mL
- Cmax (in vivo [5]; sc, 0.166 mg/kg): 144 ng/mL
- Tmax (in vivo [5]; sc, 0.166 mg/kg): 7.02 min
- Mortality ([6]; 0.166 mg/kg weekly, considered treatment related): 1 F (day 72), 1 M (day 79), at
- MTD at 4 cycles [6, 12]: ~0.1 mg/kg
- Peripheral neuropathy: focal axonal neurofiber degeneration, spinal cord (dorsal root ganglia) [6, 12]: 0.1/0.166 (weekly) mg/kg minimal
- Body weight ([6]; cynomolgus monkey, in vivo): No body weight loss at other dose
- Electrocardiography ([6]; cynomolgus monkey, in vivo): No abnormalities found at any
- Haemathology ([6]; cynomolgus monkey, in vivo): No hematological changes related
- Histology: PANCREAS ([6]; cynomolgus monkey, in vivo): PANCREAS: no findings
- Histology: PROSTATE ([6]; cynomolgus monkey, in vivo): PROSTATE: no findings
- Ophthalmology ([6]; cynomolgus monkey, in vivo): No treatment related changes
- Urinalysis ([6]; cynomolgus monkey, in vivo): No treatment related findings
- Histology: LYMPH NODES [6, 19]: LYMPH NODES: lymphoid atrophy
- Histology: SPLEEN [6, 19]: SPLEEN: pulp, lymphoid atrophy
- Mortality ([6]; other dose levels (0.075, 0.1 mg/kg bi-weekly)): No mortality at other dose levels
- cumulative AUE (over 1 week), daily schedule higher than bi-weekly ([7]; 0.05 mg/kg daily vs 0.1 mg/kg bi-weekly): about 50%
- AUE0-24 h ([7]; about 0.6 mg/m^2 once daily): 900 %. h
- remaining 20S proteasome inhibition at the end of each 2-day drug-holiday ([7]; activity determined on various days before dosing): no indication for remaining 20S proteasome inhibition
- highest inhibition (Emax) ([7]; daily schedule, 0.05 mg/kg): 73%
- cumulative weekly AUE ([7]; daily schedule, about 0.6 mg/m^2): 4500 %. h
- AUE0-24 h [7, 13]: 603 (77) % Inhibition · time
- Emax (% proteasome inhibition) [7, 13]: 48%
- Tmax (time of occurrence of Emax) [7, 13]: 30 min
- AUE0-24 h [7, 14]: 685 (32) % Inhibition · time
- Emax (% proteasome inhibition) [7, 14]: 58%
- Tmax (time of occurrence of Emax) [7, 14]: 30 min
- AUE0-24 h [7, 15]: 802 (67) % Inhibition · time
- Emax (% proteasome inhibition) [7, 15]: 65%
- Tmax (time of occurrence of Emax) [7, 15]: 30 min
- AUE0-24 h [7, 16]: 481 (103) % Inhibition · time
- Emax (% proteasome inhibition) [7, 16]: 38%
- Tmax (time of occurrence of Emax) [7, 16]: 30 min
- AUE0-24 h [7, 17]: 895 (125) % Inhibition · time
- Emax (% proteasome inhibition) [7, 17]: 62%
- Tmax (time of occurrence of Emax) [7, 17]: 30 min
- AUE0-24 h [7, 18]: 1039 (114) % Inhibition · time
- Emax (% proteasome inhibition) [7, 18]: 73%
- Tmax (time of occurrence of Emax) [7, 18]: 30 min
- time of maximal proteasome inhibition after dosing ([7]; on average, sc administration): about 0.5 h
- AUE0-72h ([8]; about 1.2 mg/m^2 bi-weekly): 1500 %. h
- strongest inhibition (Emax) ([8]; bi-weekly regimen, 0.1 mg/kg): 74%
- cumulative weekly AUE ([8]; bi-weekly schedule, about 1.2 mg/m^2): 3000 %. h
- AUE0-24 h [8, 9]: 585 (87) % Inhibition · time
- Emax (% proteasome inhibition) [8, 9]: 63%
- Tmax (time of occurrence of Emax) [8, 9]: 30 min
- AUE0-24 h ([8]; day 1, 0.1 mg/kg sc bi-weekly): 926 (99) % Inhibition · time
- Emax (% proteasome inhibition) ([8]; day 1, 0.1 mg/kg sc bi-weekly): 74%
- Tmax (time of occurrence of Emax) ([8]; day 1, 0.1 mg/kg sc bi-weekly): 30 min
- AUE0-24 h ([8]; day 1, 0.166 mg/kg sc weekly): 931 (124) % Inhibition · time
- Emax (% proteasome inhibition) ([8]; day 1, 0.166 mg/kg sc weekly): 78%
- Tmax (time of occurrence of Emax) ([8]; day 1, 0.166 mg/kg sc weekly): 60 min
- AUE0-24 h [8, 10]: 1086 (158) % Inhibition · time
- Emax (% proteasome inhibition) [8, 10]: 68%
- Tmax (time of occurrence of Emax) [8, 10]: 30 min
- AUE0-24 h ([8]; day 32, 0.1 mg/kg sc bi-weekly): 1454 (201) % Inhibition · time
- Emax (% proteasome inhibition) ([8]; day 32, 0.1 mg/kg sc bi-weekly): 71%
- Tmax (time of occurrence of Emax) ([8]; day 32, 0.1 mg/kg sc bi-weekly): 30 min
- AUE0-24 h ([8]; day 50, 0.166 mg/kg sc weekly): 2152 (222) % Inhibition · time
- Emax (% proteasome inhibition) ([8]; day 50, 0.166 mg/kg sc weekly): 78%
- Tmax (time of occurrence of Emax) ([8]; day 50, 0.166 mg/kg sc weekly): 30 min
- AUE0-24 h [8, 11]: 1111 (116) % Inhibition · time
- Emax (% proteasome inhibition) [8, 11]: 67%
- Tmax (time of occurrence of Emax) [8, 11]: 30 min
- AUE0-24 h ([8]; day 74, 0.1 mg/kg sc bi-weekly): 1584 (210) % Inhibition · time
- Emax (% proteasome inhibition) ([8]; day 74, 0.1 mg/kg sc bi-weekly): 72%
- Tmax (time of occurrence of Emax) ([8]; day 74, 0.1 mg/kg sc bi-weekly): 30 min
- AUE0-24 h ([8]; day 78, 0.166 mg/kg sc weekly): 1468 (219) % Inhibition · time
- Emax (% proteasome inhibition) ([8]; day 78, 0.166 mg/kg sc weekly): 77%
- Tmax (time of occurrence of Emax) ([8]; day 78, 0.166 mg/kg sc weekly): 60 min
- time of maximal proteasome inhibition after dosing ([8]; on average, sc administration): about 0.5 h
- maximal inhibition ([8]; weekly 0.166 mg/kg dose group): 78%
